Molecules are shown by their SMILES. pIC50: −log10 of the molar value.

This assay has as its system Human recombinant GST-PI3K. Kind of assay: PI3K induced-lipid phosphorylation, neomycin-SPA scintillation proximity assay. The assay is classed as biochemical. The following applies: Human recombinant GST-PI3K, SPA. From the text: The efficacy of compounds of the invention in inhibiting the PI3K induced-lipid phosphorylation may be tested in the following binding assay. The assay combines the scintillation proximity assay technology (SPA, Amersham) with the capacity of neomycin (a polycationic antibiotic) to bind phospholipids with high affinity and specificity. The Scintillation Proximity Assay is based on the properties of weakly emitting isotopes (such as ^3H, ^125I, ^33P). Coating SPA beads with neomycin allows the detection of phosphorylated lipid substrates after incubation with recombinant PI3K and radioactive ATP in the same well, by capturing the radioactive phospholipids to the SPA beads through their specific binding to neomycin.
To a 96 wells MTP containing 10 μL of the test compound of Formula (I) (solubilized in 10% DMSO; […]), the following assay components are added: 1) 10 μL of lipid micelles 2) 20 μL of Kinase buffer ([^33P]γATP162 μM/300 nCi, MgCl2 2.5 mM, DTT 2.5 mM, Na3VO4 25 uM in Hepes 40 mM, pH 7.4) and 3) 10 μL (100 ng) of Human recombinant GST-PI3K (in Hepes 40 mM, pH 7.4, ethylenglycol 4%). After incubation at room temperature for 120 minutes, with gentle agitation, the reaction is stopped by addition of 200 μL of a solution containing 250 μg of neomycin-coated PVT SPA beads, ATP 60 mM and EDTA 6.2 mM in PBS. The assay is further incubated at room temperature for 60 minutes with gentle agitation to allow binding of phospholipids to neomycin-SPA beads. After precipitation of the neomycin-coated PVT SPA beads for 5 minutes at 1500×g, radioactive PtdIns(3)P is quantified by scintillation counting in a Wallac MicroBeta™ plate counter.
The values indicated in Table I below refer to the IC50 (μM) with respect to PI3K, i.e. the amount necessary to achieve 50% inhibition of said target. Said values show a considerable inhibitory potency of quinoxaline compounds with regard to PI3K.
Take `COc1ccc(CC(O)CO)c(Nc2nc3ccccc3nc2NS(=O)(=O)c2cn(C)cn2)c1` [Example 77, N-[3-({2-[(2R,2S)-2,3-Dihydroxypropyl]-5-methoxyphenyl}amino)quinoxalin-2-yl]-1-methyl-1H-imidazole-4-sulfonamide]: the negative-log IC50 (pIC50) was 6.92. Take `COc1ccc(S(=O)(=O)NCCO)c(Nc2nc3ccccc3nc2NS(=O)(=O)CCCS(C)(=O)=O)c1` [Example 64, N-(2-Hydroxyethyl)-4-methoxy-2-{[3-({[3-(methylsulfonyl)propyl]sulfonyl}amino)quinoxalin-2-yl]amino}benzenesulfonamide]: the pIC50 is 6.52. For the molecule `COc1ccc(CC2CCC(O)CC2)c(Nc2nc3ccccc3nc2NS(=O)(=O)c2ccc(CN(C)C)cc2)c1` (stereo not drawn) [Example 84, 4-[(dimethylamino)methyl]-N-[3-({2-[(4-hydroxycyclohexyl)methyl]-5-methoxyphenyl}amino)quinoxalin-2-yl]benzenesulfonamide], the pIC50 is 7.59. `COc1ccc(C(C)C)c(Nc2nc3ccccc3nc2NS(=O)(=O)c2cn(C)cn2)c1` [Example 30, N-{3-[(2-Isopropyl-5-methoxyphenyl)amino]quinoxalin-2-yl}-1-methyl-1H-imidazole-4-sulfonamide]: the pIC50 was 6.70. To `COc1ccc(C(CO)CO)c(Nc2nc3ccccc3nc2NS(=O)(=O)c2cn(C)cn2)c1` [Example 29, N-[3-({2-[2-Hydroxy-1-(hydroxymethyl)ethyl]-5-methoxyphenyl}amino)quinoxalin-2-yl]-1-methyl-1H-imidazole-4-sulfonamide] belongs 6.26. For `COc1cc(Nc2nc3ccccc3nc2NS(=O)(=O)c2cccnc2)cc(C(=O)N2CCN(C)CC2)c1` [Example 4, N-[3-({3-methoxy-5-[(4-methylpiperazin-1-yl)carbonyl]phenyl}amino)quinoxalin-2-yl]pyridine-3-sulfonamide] the value was 5.48; for `COc1cc(Nc2nc3ccccc3nc2NS(C)(=O)=O)cc(C(=O)N2CCOCC2)c1` [Example 6, N-(3-{[3-methoxy-5-(morpholin-4-ylcarbonyl)phenyl]amino}quinoxalin-2-yl)methanesulfonamide], 5.25. To `COCCNC(=O)c1cc(Nc2nc3ccccc3nc2NS(=O)(=O)c2cn(C)cn2)cc(OC)c1` [Example 80, 3-Methoxy-N-(2-methoxyethyl)-5-[(3-{[(1-methyl-1H-imidazol-4-yl)sulfonyl]amino}quinoxalin-2-yl)amino]benzamide] belongs 6.40; to `COc1ccc(CCO)c(Nc2nc3ccccc3nc2NS(=O)(=O)C2CCS(=O)(=O)C2)c1` (stereo not drawn) [Example 56], 7.07; to `COc1ccc(CCCO)c(Nc2nc3ccccc3nc2NS(=O)(=O)C(C)C)c1` [Example 50, N-(3-{[2-(3-Hydroxyproxyl)-5-methoxypheyl]amino}quinoxalin-2-yl)propane-2-sulfonamide], 7.14.

Take `COc1ccc(CCOC(=O)[C@@H](NC(=O)OCC2c3ccccc3-c3ccccc32)C(C)C)c(Nc2nc3ccccc3nc2NS(=O)(=O)c2cn(C)cn2)c1` [Example 103, 2-{4-Methoxy-2-[(3-{[(1-methyl-1H-imidazol-4-yl)sulfonyl]amino}quinoxalin-2-yl)amino]phenyl}ethyl N-[(9H-fluoren-9-ylmethoxy)carbonyl]-L-valinate]: the pIC50 is 5.74.

`COc1ccc(CC2CCCCC2)c(Nc2nc3ccccc3nc2NS(=O)(=O)c2cn(C)cn2)c1` [Example 20, N-(3-{[2-(cyclohexylmethyl)-5-methoxyphenyl]amino}quinoxalin-2-yl)-1-methyl-1H-imidazole-4-sulfonamide]: the pIC50 is 6.35. For the molecule `COc1ccc(CCO)c(Nc2nc3ccccc3nc2NS(=O)(=O)c2ccc(F)cc2)c1` [Example 36, 4-Fluoro-N-(3-{[2-(2-hydroxyethyl)-5-methoxyphenyl]amino}quinoxalin-2-yl)benzenesulfonamide], the pIC50 is 7.64.

Regarding `COc1ccc(CC2CCSCC2)c(Nc2nc3ccccc3nc2NS(=O)(=O)c2ccc(CN(C)C)cc2)c1` [Example 88, 4-[(dimethylamino)methyl]-N-(3-{[5-methoxy-2-(tetrahydro-2H-thiopyran-4-ylmethyl)phenyl]amino}quinoxalin-2-yl)benzenesulfonamide], the pIC50 was 7.46. For `CCCS(=O)(=O)Nc1nc2ccccc2nc1Nc1cc(OC)ccc1CCS(C)(=O)=O` [Example 53, N-[3-({5-Methoxy-2-[2-(methylsulfonyl)ethyl]phenyl}amino)quinoxalin-2-yl]propane-1-sulfonamide] the value was 7.06; for `COc1ccc(CC2CCCC2)c(Nc2nc3ccccc3nc2NS(=O)(=O)c2cn(C)cn2)c1` [Example 24, N-(3-{[2-(cyclopentylmethyl)-5-methoxyphenyl]amino}quinoxalin-2-yl)-1-methyl-1H-imidazole-4-sulfonamide], 6.74. To `COc1ccc(CC2CCN(C)CC2)c(Nc2nc3ccccc3nc2NS(=O)(=O)c2cccnc2)c1` [Example 12, N-[3-({5-methoxy-2-[(1-methylpiperidin-4-yl)methyl]phenyl}amino)quinoxalin-2-yl]pyridine-3-sulfonamide] belongs 7.35. To `COCCc1ccc(OC)cc1Nc1nc2ccccc2nc1NS(=O)(=O)C1CCNCC1` [Example 100, N-(3-{[5-Methoxy-2-(2-methoxyethyl)phenyl]amino}quinoxalin-2-yl)piperidine-4-sulfonamide] belongs 7.01; to `COc1ccc(CCS(C)(=O)=O)c(Nc2nc3ccccc3nc2NS(=O)(=O)CCCSC)c1` [Example 57, N-[3-({5-Methoxy-2-[2-(methylsulfonyl)ethyl]phenyl}amino)quinoxalin-2-yl]-3-(methylthio)propane-1-sulfonamide], 6.85; to `COc1cc(Nc2nc3ccccc3nc2NS(=O)(=O)c2cn(C)cn2)cc(C(=O)NCCO)c1` [Example 67, N-(2-Hydroxyethyl)-3-methoxy-5-[(3-{[(1-methyl-1H-imidazol-4-yl)sulfonyl]amino}quinoxalin-2-yl)amino]benzamide], 7.00. Regarding `COc1ccc(CCCO)c(Nc2nc3ccccc3nc2NS(=O)(=O)C2CCNCC2)c1` [Example 99, N-(3-{[2-(3-Hydroxypropyl)-5-methoxyphenyl]amino}quinoxalin-2-yl)piperidine-4-sulfonamide], the pIC50 was 7.59. As for `COCCc1ccc(OC)cc1Nc1nc2ccccc2nc1NS(=O)(=O)C1CCN(C(C)=O)CC1` [Example 101, 1-Acetyl-N-(3-{[5-methoxy-2-(2-methoxyethyl)phenyl]amino}quinoxalin-2-yl)piperidine-4-sulfonamide], the pIC50 is 6.52. For `COc1ccc(CN2CCN(C)CC2)c(Nc2nc3ccccc3nc2NS(=O)(=O)c2ccc(F)cc2)c1` [Example 82, 4-fluoro-N-[3-({5-methoxy-2-[(4-methylpiperazin-1-yl)methyl]phenyl}amino)quinoxalin-2-yl]benzenesulfonamide], the pIC50 was 6.96. To `COc1ccc(CCCO)c(Nc2nc3ccccc3nc2NS(=O)(=O)c2cccc(NC(=O)CN(C)C)c2)c1` [Example 78, 2-Dimethylamino-N-(3-{[(3-{[2-(3-hydroxypropyl)-5-methoxyphenyl]amino}quinoxalin-2-yl)]sulfamoyl}phenyl)-acetamide] belongs 7.52.

For the origin of these results see patent publication US8614215B2, “Quinoxaline inhibitors of phosphoinositide-3-kinases (PI3Ks)” (Merck Serono SA, priority 2007, dated 2013).
